Measurements as given in US20250213700A1, “COMPOUNDS, COMPOSITIONS, AND METHODS FOR CELL-SPECIFIC PHARMACOLOGY” (Duke University, priority 2022, published 2025).

What was measured:
AMPAR [1] = experiment: whole-mount retina, AMPAR-mediated evoked EPSC in retinal ganglion cells; format: cell-based, mouse; conditions: 300 nM, 15 min
Method: (FIG. 6A) Viral strategy (top panel). […] Experimental overview (second panel from the top to bottom panel). Top: whole retina; synaptic current is evoked (stim) and recorded (voltage-clamp of dTomato+ RGC), with ionic and pharmaceutical conditions chosen to isolate the AMPAR or GABAAR. A 10 min baseline is followed by 15 min application of 300 nM Rx^DART.2+30 nM Alexa^647.1DART.2. […] (FIG. 6B) CMPDA.2^DART.2 (left). Electropositive spacer (PDB 3RNN). […] AMPAR structural model (middle) (composite of PDB 5WEO, 3RNN, and 1FTL). Cylinder depicts cell membrane. […] YM90K.1^DART.2 (right). Structural model (PDB 1FTL). […] (FIG. 6C) diazepam.1^DART.2 (left). Structural model (PDB 6HUP). […] GABAAR (middle) structural model (composite of PDB 6HUP and 6HUK). […] Structural model (PDB 6HUK).
Preparation of Retina: Mice were intravitreal injected AAV10 HaloTag™-dTomato to eyes. After 8-12 weeks, the mice killed by cervical dislocation. Both eyes were removed and dissected under a stereo-microscope. Retinas were isolated from the eyecups and placed in oxygenated (95% O2/5% CO2) cold-Ames medium (Sigma-Aldrich), supplemented with 21 mM NaHCO3. After the vitreous body was removed, a retina was cut into 3 pieces, leaving each retina piece attached to a filter paper with 2 mm hole by retina ganglion-cell-side-down. The pieces of retina were stored in bubbled Ames solution at room temperature, then transferred to recording chamber with retina ganglion-cell-side-up for recording.
Whole-cell patch-clamp recording: The brain slices or retinas were perfused with bubbled aCSF at 29-30° C. with a 2 ml/min flow rate. Recordings were made by whole cell patch recording techniques using a Multiclamp 700B amplifier (Molecular Devices, Axon Instruments Inc., Union City, CA). The signals were filtered at 10 KHz and acquired using Digitate 1440A and pClamp 10.7 (Molecular Devices). The recording pipettes (4 MΩ-6 MΩ) were filled with internal solutions. For GABAA receptor-mediated evoked inhibitory postsynaptic currents ([…]) recording, the pipettes filled with Cesium Chloride-based internal solution (in mM) 135 CsCl, 2 MgCl2, 0.5 EGTA, 10 HEPES, 4 Mg-ATP, 0.5 Na-GTP, 10 Na2-phosphocreatine, and QX314 (lidocaine N-ethyl bromide), pH adjusted to 7.3 with CsOH (290 mosm). For AMPA-receptor mediated evoked excitatory postsynaptic currents (eEPSCs) recording, the pipette solution contained (in mM) 130 CsMeS, 1 MgCl2, 0.5 EGTA, 10 HEPES, 4 Mg-ATP, 0.5 Na-GTP, 10 Na2-phosphocreatine, and 4 QX314, pH adjusted to 7.3 with CsOH (290 mosm). For experiment of brain slices and retinas, the eIPSCs or eEPSCs were elicited by electrical stimuli at 0.067 Hz in 0.3-ms duration and 150-300-ρA (60-70% maximum responses) stimulation intensity at a holding potential of −70 mV. The stimulating electrode was placed within 60-100 μm from the recording neuron under voltage-clamp mode. GABA-receptor mediated eIPSCs were isolated in the presence of DNQX ([…] AMPAR antagonist) and AP-V ([…] antagonist) in the bath solution. For AMPA-receptor mediated eEPSCs, added picrotoxin ([…], GABAAR antagonist) and AP-V ([…]) to the bath solution.

AMPAR [2] = experiment: positive allosteric modulation of the AMPAR by CMPDA reagents; format: cell-based
From the text: To complete the bidirectional ionotropic toolkit, allosteric modulators of the AMPAR were explored. For many pharmaceuticals of this class, including cyclothiazide, two drug molecules are known to bind in close proximity, one on each side of the interface between adjacent ligand-binding domains. Thus, newer pharmaceuticals of this class were focused on, which can span the two binding sites simultaneously, reasoning that it would be easier to accommodate a single tether into the binding interface. In particular, CMPDA (phenyl-1,4-bisalkylsulfonamide) was focused on, owing to its structural simplicity and availability of an experimental atomic structure. […] A synthetic scheme to resynthesize CMPDA while installing a short PEG spacer domain at a point of attachment was devised to allow tether access from the allosteric binding site to free solution. […] Altering the electrostatic properties of the spacer domain was explored. In silico docking and experimental iteration to redesign the electronegative spacer (CCOCCOCC) into a polar neutral spacer (CBNCCCNC) was used, yielding CMPDA.2alkyne, which was converted into the full-length CMPDA.2DART.2.

[3] = target: T1, HTP on retinal ganglion cells (Rhodococcus rhodochrous, UniProt P0A3G2, A155T/A167V/A172T/A224E/C128F/C176G/D78G/E160K/E257K/H272N/K175M/K195N/L47V/L88M/N227D/S58T/T264A/Y273L/Y87F); experiment: tracer dye capture on retinal ganglion cells; format: cell-based, mouse; conditions: 30 nM, 15 min, after washout
T1 construct: SSnlg signal peptide (residues 1-49 of mouse neuroligin-1) (N); Thy1 GPI anchor signal (C); expressed in transfected cells; host or cells: mouse neurons transduced in vivo with AAV-DIO-+HTPGPI (D1-Cre dorsal striatum; PV::cre retinal ganglion cells)
Method: FIG. 6A-6C show bidirectional manipulation of AMPAR and GABAAR neurotransmission. (FIG. 6A) Viral strategy (top panel). Intravitreal AAV7m8-DIO-HTPGPI-2A-dTomao achieves retinal ganglion cell (RGC) expression in PV::cre mice. Experimental overview (second panel from the top to bottom panel). Top: whole retina; synaptic current is evoked (stim) and recorded (voltage-clamp of dTomato+ RGC), with ionic and pharmaceutical conditions chosen to isolate the AMPAR or GABAAR. A 10 min baseline is followed by 15 min application of 300 nM Rx^DART.2+30 nM Alexa^647.1DART.2. […] (FIG. 6B) CMPDA.2^DART.2 (left). Electropositive spacer (PDB 3RNN). […] EPSC waveform before and after CMPDA.2^DART.2. AMPAR structural model (middle) (composite of PDB 5WEO, 3RNN, and 1FTL). Cylinder depicts cell membrane. CMPDA.2^DART.2 binds within an inter-clamshell interface (2 per receptor). YM90K.1^DART.2 binds the orthosteric glutamate binding site in the clamshell (4 per receptor). YM90K.1^DART.2 (right). […]
Next it was asked whether bidirectional modulation of the AMPAR and GABAAR could be achieved in the same cell type. A preparation was focused on in which electrophysiology is the primary readout, enabling resolution of the amplitude and millisecond time-constant of synaptic transmission. […] A whole-mount retina was later prepared and evoked synaptic currents were measured under conditions that isolate the AMPAR or GABAAR. […]

[4] = system: +HTP somatostatin interneurons and -HTP neurons of V1 visual cortex; experiment: 2P calcium imaging of V1 visual responses after contralateral ventricle infusion, SOM-Cre mice; format: in vivo, mouse; conditions: infused with YM90K.1DART.2 into contralateral ventricle, widefield fluorescence
Method: Top left: Mice expressing pan-neuronal GCaMP8s with SOM-specific ^+HTP. Window over V1. DART delivered via the contralateral ventricle. Bottom left: In-vivo and ex-vivo expression and dye capture. Right: Mice presented oriented visual gratings, 2P Ca^2+ imaging obtained before and 5-6 hr after infusion of 0.3 nmole Alexa647.1^DART.2+3 nmole YM90K.1^DART.2 (2 μL volume) into the contralateral ventricle.
Next, it was examined whether this strategy could deliver a pharmacologically active DART to genetically defined cells. A surgery was performed in which AAV DIO +HTPGPI was injected into the V1 visual cortex of SOM-Cre mice for cell-specific expression in somatostatin interneurons, along with a co-injected AAV-GCaMP8s virus for pan-neuronal neural activity monitoring. A cannula was implanted in the contralateral ventricle, and glass window over V1. Following surgical recovery, a mixture of YM90K.1DART.2+Alexa647.1DART.2 was infused. […] To test for pharmacological effects, 2P calcium imaging of +HTP and −HTP was performed while mice were presented with oriented gratings. A reduction in +HTP visual response was apparent 4 hours post DART infusion. This reduction persisted even after 24 hours post infusion.

[5] = biodistribution to cortex after lateral ventricle infusion (wide-field fluorescence through cranial window); format: in vivo, mouse; conditions: -HTP mice, high dose into lateral ventricle
From the text: To maintain control of the ambient drug concentration in vivo, thus far a cannula was implanted in close proximity to the desired brain target. (FIG. 5) However, optical and electrical brain interfaces often occupy this precious real estate. For example, cranial window technologies, in which a portion of the skull is replaced with a glass window, have become instrumental in studying the neocortex. Application of drugs through a glass window remains an unsolved problem, as access ports will generally close due to scarring, and temporary removal of the window can compromise the preparation. Thus, it was asked whether DART.2 could enable dosing from a distance via the cerebrospinal fluid (CSF). Delivery via the cisterna magna was first explored, given reports that dextran tracers delivered at this site achieve rapid biodistribution throughout the neocortex parenchyma. Although there was some preliminary success with this approach, it was found difficult to establish mechanically stable cannulation of the cisterna magna, owing to its position below the base of the skull and to the mobility of the neck muscles. […] Following surgical recovery, a high dose of Alexa647.1DART.2 was fused into the LV (dose, volume) and monitored wide-field fluorescence intensity through the cranial window. Fluorescence intensity peaked 2 hr later, and largely cleared by 24 hours (i2055,i2056). […]

T1 sequence (P0A3G2 other isoform, or with tags, fused parts or gaps with the stated changes): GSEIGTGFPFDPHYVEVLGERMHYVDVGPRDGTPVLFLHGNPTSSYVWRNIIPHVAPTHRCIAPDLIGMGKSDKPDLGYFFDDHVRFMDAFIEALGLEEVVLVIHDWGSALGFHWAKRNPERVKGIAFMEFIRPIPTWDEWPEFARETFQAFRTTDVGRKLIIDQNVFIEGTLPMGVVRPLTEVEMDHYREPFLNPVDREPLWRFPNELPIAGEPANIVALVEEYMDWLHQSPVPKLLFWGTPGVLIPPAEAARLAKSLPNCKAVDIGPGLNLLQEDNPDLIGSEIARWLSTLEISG

Row | Structure (SMILES) | AMPAR evoked EPSC integral (total charge transfer) boost, +HTP cells (AMPAR [1]) [fold] | AMPAR evoked EPSC, ddHTP cells (AMPAR [1]) | integrated EPSC charge transfer, +HTP RGCs (AMPAR [1]) | AMPAR evoked EPSC, ddHTP cells (AMPAR [1]; listed as CMPDA.2^DART.2) | positive modulation of the AMPAR (AMPAR [2]) | dye capture on +HTP cells [3] | dye capture on ddHTP or -HTP cells [3] | time for DART capture to reach steady state [4] [h] | time by which fluorescence largely cleared [5] [h] | time to peak fluorescence intensity over cortex [5] [h]
1 | COc1cc(CCCCl)ccc1CCOCCNC(=O)c1ccc(CNC(=O)CCOCCOCCOCCOCCOCCOCCOCCOCCOCCOCCOCCOCCOCCOCCOCCOCCOCCOCCOCCOCCOCCOCCOCCOCCOCCOCCOCCOCCOCCOCCOCCOCCOCCOCCOCCOCCn2cc(COCCNCCCNC(=O)CC(CNS(=O)(=O)C(C)C)c3ccc(CCNS(=O)(=O)C(C)C)cc3)nn2)cc1 (centres unmarked) [CMPDA.2DART.2] | 3 | No impact | three-fold increase | not ^ddHTP cells | restored the ability of the reagent to bind and produce positive allosterically modulation of the AMPAR |  |  |  |  | 
2 | C#CCOCCOCCOCCOCCOCCOCCC(CNS(=O)(=O)C(C)C)c1ccc(CCNS(=O)(=O)C(C)C)cc1 (centres unmarked) [CMPDA.1alkyne, N-(2-{4-[23-(propane-2-sulfonamido)-4,7, 10, 13, 16, 19-hexaoxatricos-1-yn-22-yl]phenyl}ethyl)propane-2-sulfonamide] |  |  |  |  | retained its ability to positively modulate the AMPAR |  |  |  |  | 
3 | COc1cc(CCCCl)ccc1CCOCCNC(=O)c1ccc(CNC(=O)CCOCCOCCOCCOCCOCCOCCOCCOCCOCCOCCOCCOCCOCCOCCOCCOCCOCCOCCOCCOCCOCCOCCOCCOCCOCCOCCOCCOCCOCCOCCOCCOCCOCCOCCOCCOCCn2cc(COCCOCCOCCOCCOCCOCCNC(=O)CCCCCC3(C)\C(=C/C=C/C=C/C4=[N+](CCCS(=O)(=O)O)c5ccc(S(=O)(=O)[O-])cc5C4(C)C)N(CCCS(=O)(=O)O)c4ccc(S(=O)(=O)O)cc43)nn2)cc1 (centres unmarked) [Alexa647.1DART.2] |  |  |  |  |  | robust capture | no detectible capture | 4 to 8 | ≤ 24 | 2
